Measurements as given in PubChem BioAssay AID179 (DTP/NCI, 2004).
The source made the active and inactive calls.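 The calls were made as follows: active = compounds giving half or more protection of infected cells from virus-caused growth loss, again on retest; inactive = the rest.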

Test system: CEM cells HIV-1 protection, formazan growth assay
Experiment: NCI AIDS Antiviral Assay
Details: for IC50: measured here: growth of uninfected CEM cells
Summary of the method: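 Human CEM cells, uninfected and HIV-1-infected, exposed to five drug concentrations; growth measured by soluble formazan assay and scored as percent protection from infection, with protecting compounds retested.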

Row | SMILES | EC50 | IC50 | outcome
1 | CC1=C(C(=O)NCc2ccccc2)C(c2ccccc2[N+](=O)[O-])C(C(=O)NCc2ccccc2)=C(C)N1 | > 7.59 µM | > 7.59 µM | 
2 | CCN(CC)C(=O)COc1cc2c(O)c3c(O)c(C)c4c(c13)C(=O)C(C)(O/C=C/C(OC)C(C)C(OC(C)=O)C(C)C(O)C(C)C(O)C(C)/C=C/C=C(\C)C(=O)N2)O4 (configuration not stated) | > 200 µM | 74.1 µM | 
3 | CC(=O)N1CC[N+](C)(CCCCN2c3ccccc3Sc3cc(N=[N+]=[N-])ccc32)CC1 | > 200 µM | 81.3 µM | 
4 | CC(C)(C)C1CCC2c3c([nH]c4ccccc34)C3C(=O)N(c4ccc(Cl)cc4)C(=O)C3C2C1 (configuration not stated) | > 200 µM | > 100 µM | 
5 | Nc1cc(=O)[nH][nH]1 | > 200 µM | > 200 µM | 
6 | CCCN(CCC)C(=O)c1c(N2CCN(C)CC2)c2cccnc2n2c(C)cnc12 | > 200 µM | > 200 µM | 
7 | CN(C)C(=O)/N=C1\SC(=Nc2ccccc2)C(=Nc2ccccc2)N1c1ccc([N+](=O)[O-])cc1 |  |  | inactive
8 | CC1CCC2(OC2(C)C)C(=O)C1 (configuration not stated) | > 200 µM | > 200 µM | 
9 | CCCC(=O)NC1Cc2cc(C)cc(C)c21 (configuration not stated) | > 45.7 µM | > 45.7 µM | 
10 | NC1=NN(c2ccccc2)C(=O)C1C(=O)C(=O)Nc1nccs1 (configuration not stated) | > 79.4 µM | > 79.4 µM | 
11 | Cc1c2cc(Br)ccc2nc(CCl)[n+]1[O-] | > 20 µM | 0.977 µM | 
12 | CCOC(=O)NC(Nc1ccc(S(=O)(=O)Nc2ccc(OC)nn2)cc1)(C(F)(F)F)C(F)(F)F | > 200 µM | > 200 µM | 
13 | Cc1cc(S(=O)(=O)n2ccnc2Oc2ccccc2N)c(SSc2cc(Cl)c(C)cc2S(=O)(=O)n2ccnc2Oc2ccccc2N)cc1Cl | > 100 µM | 19.5 µM | 
14 | O=C1CC2(CC=CCC23OCCO3)CC(CI)O1 (configuration not stated) | > 200 µM | > 200 µM | 
15 | COc1ccccc1N=NC1=C2Nc3ccccc3N=C1N(c1ccccc1OC)C(=S)N2c1ccccc1C |  |  | inactive
16 | NC(=S)C1=C(N)Oc2c(c(=O)oc3ccccc23)C1c1ccc(Br)cc1 (configuration not stated) | > 200 µM | 126 µM | 
17 | O=C(c1ccccc1)c1nnn(Cc2cccc(Cl)c2)c1C(=O)c1ccccc1 | > 12.9 µM | > 12.9 µM | 

Row | SMILES | EC50 | IC50 | outcome
18 | CN(C)C(=O)c1cccc(COc2ccc(N3C(N)=NC(N)=NC3(C)C)cc2Cl)c1 | > 468 µM | 0.148 µM | 
19 | COC1=C(Br)[C@H](O)[C@@]2(C=C1Br)CC(C(=O)NCCCCCN=C(N)N)=NO2 | > 10 µM | > 10 µM | 
20 | Cc1n[nH]c(=O)n1/N=C/c1cccnc1 |  |  | inactive
21 | CN(C)C(=S)SSC(C)(C)C | > 200 µM | 8.32 µM | 
22 | CC(=O)Oc1c(C)c2c(c3ncccc13)OC(C)C2 (configuration not stated) | > 200 µM | 3.16 µM | 
23 | CC(C)(C)N=NNc1cn(C2OC(CO)C(O)C2O)c(=O)[nH]c1=O (configuration not stated) | > 724 µM | > 724 µM | 
24 | O=Cc1c(O)ccc2ccc(O)c(-c3c(O)ccc4ccc(O)cc34)c12 | > 363 µM | 20.9 µM | 
25 | C(=C\N1CCCCC1)/c1nnnn1-c1ccccc1 | > 200 µM | 24 µM | 
26 | C[C@]12CCC(=O)C(O)=C1CC[C@@H]1C2CC[C@]2(C)Nc3c(cnn3-c3ccccc3)CC12 (some centres not stated) |  |  | inactive
27 | COC(=O)C1CCC(=O)N1C(c1ccccc1)c1ccc(OC)c(OC)c1 (configuration not stated) | > 200 µM | > 200 µM | 
28 | N#CCCN(CCCN(C(=O)Nc1ccccc1)c1ccccc1)C(=O)Nc1ccccc1 | > 200 µM | 95.5 µM | 
29 | [Pt].c1ccc([PH+](CC[PH+](CC[PH+](c2ccccc2)c2ccccc2)c2ccccc2)CC[PH+](c2ccccc2)c2ccccc2)cc1 (configuration not stated) | > 15.8 µM | 12.6 µM | 
30 | O=C1C(c2ccccc2)=C(c2ccccc2)C(c2ccc(CCCCCCc3ccc(C4=C(c5ccccc5)C(=O)C(c5ccccc5)=C4c4ccccc4)cc3)cc2)=C1c1ccccc1 | > 1.23 µM | > 1.23 µM | 
31 | C/C(CC(=O)Nc1ccccc1[N+](=O)[O-])=N\NC(N)=O | > 468 µM | > 468 µM | 
32 | Oc1ccccc1-n1nc2ccc3nonc3c2n1 | > 200 µM | > 200 µM | 
33 | [O-][n+]1onc2c1CCC(=N\O)/C2=N/Nc1ccccc1 | > 200 µM | 155 µM | 
